From the supplement of paper PMC10307832

Columns and labels:
Assay in all cases: relative viability (nuclei count vs DMSO), 5 days (fraction); higher = more cells survive
[1] = compound: CN(C)CC1=CC(=CC=C1)N=C(C2=CC=CC=C2)C3=C(NC4=C3C=CC(=C4)C(=O)N(C)C)O + CC(=O)c1c(C)c2cnc(Nc3ccc(N4CCNCC4)cn3)nc2n(C2CCCC2)c1=O [Palbociclib] (partner 0.5 µM)
Method in brief: (§1)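 Nuclei were stained with Hoechst during a one-step fixation (final 0.05% Triton X-100, 1% formaldehyde, 1 ug/ml Hoechst) carried out 5 days after dosing, then counted on 4× images. The cells, lung cancer lines in 1536-well plates, had been dosed by pin tool the day after seeding with one drug alone or a fixed anchor-drug dose plus five library-drug doses (not always all listed) in √10 steps. Relative viability is the nuclei count in treated wells divided by that in vehicle wells, and each value is the median of duplicate plates.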

[2] = compound: CN(C)CC1=CC(=CC=C1)N=C(C2=CC=CC=C2)C3=C(NC4=C3C=CC(=C4)C(=O)N(C)C)O + CCNC(=O)c1noc(-c2cc(C(C)C)c(O)cc2O)c1-c1ccc(CN2CCOCC2)cc1 [Luminespib] (partner 0.01 µM)
Method in brief: as §1

[3] = compound: CN(C)CC1=CC(=CC=C1)N=C(C2=CC=CC=C2)C3=C(NC4=C3C=CC(=C4)C(=O)N(C)C)O + COc1cccc2cc(-c3nc([C@H]4CC[C@H](C(=O)O)CC4)n4ncnc(N)c34)[nH]c12 [OSI-027] (partner 0.5 µM)
Method in brief: as §1

[4] = compound: CN(C)CC1=CC(=CC=C1)N=C(C2=CC=CC=C2)C3=C(NC4=C3C=CC(=C4)C(=O)N(C)C)O + CS(=O)(=O)N1CCN(Cc2cc3nc(-c4cccc5[nH]ncc45)nc(N4CCOCC4)c3s2)CC1 [Pictilisib] (partner 1 µM)
Method in brief: as §1

Cell Line	relative viability ([1]; first compound 0.08 µM)	relative viability ([1]; first compound 0.253 µM)	relative viability ([1]; first compound 0.8 µM)	relative viability ([1]; first compound 2.53 µM)	relative viability ([1]; first compound 8 µM)	relative viability ([2]; first compound 0.08 µM)	relative viability ([2]; first compound 0.253 µM)	relative viability ([2]; first compound 0.8 µM)	relative viability ([2]; first compound 2.53 µM)	relative viability ([2]; first compound 8 µM)	relative viability ([3]; first compound 0.08 µM)	relative viability ([3]; first compound 0.253 µM)	relative viability ([3]; first compound 0.8 µM)	relative viability ([3]; first compound 2.53 µM)	relative viability ([3]; first compound 8 µM)	relative viability ([4]; first compound 0.08 µM)	relative viability ([4]; first compound 0.253 µM)	relative viability ([4]; first compound 0.8 µM)	relative viability ([4]; first compound 2.53 µM)	relative viability ([4]; first compound 8 µM)
LK-2	0.52	0.814	0.605	0.561	0.541	0.229	0.164	0.188	0.183	0.138	0.189	0.228	0.241	0.211	0.185	0.52	0.482	0.591	0.53	0.473
NCI-H838	0.253	0.243	0.199	0.198	0.177	0.386	0.355	0.254	0.331	0.341	0.347	0.469	0.513	0.417	0.354	0.529	0.42	0.469	0.397	0.429
HCC-44	0.966	1.01	0.973	0.923	1	1.15	0.761	1.03	0.917	0.991	0.67	0.584	0.6	0.392	0.533	0.645	0.715	0.585	0.532	0.584
LC-2-ad	0.404	0.512	0.475	0.456	0.486	1.01	0.894	1.06	0.863	0.973	0.935	0.73	0.867	0.732	0.614	0.453	0.383	0.442	0.521	0.231
NCI-H1755	0.438	0.45	0.426	0.452	0.439	0.472	0.413	0.422	0.351	0.454	0.707	0.7	0.798	0.773	0.622	0.46	0.433	0.349	0.418	0.381
NCI-H1944	0.32	0.344	0.282	0.357	0.33	0.758	0.766	0.785	0.657	0.585	0.447	0.491	0.4	0.355	0.348	0.36	0.343	0.318	0.367	0.322
CAL-12T	0.436	0.431	0.208	0.524	0.43	0.27	0.451	0.877	0.542	0.376	0.736	0.746	0.686	0.849	0.527	–	0.74	0.482	–	0.459
NCI-H661	0.435	0.381	0.391	0.392	0.429	0.922	0.904	0.964	0.865	0.811	0.718	0.679	0.665	0.718	0.567	0.4	0.465	0.387	0.498	0.657
A-427	0.558	0.5	0.508	0.505	0.465	0.995	0.929	1	0.667	0.756	0.472	0.429	0.497	0.509	0.36	0.751	0.693	0.902	0.803	0.706
COR-L23	0.321	0.329	0.379	0.269	0.326	0.752	0.787	0.791	0.523	0.665	0.722	0.788	0.818	0.741	0.732	0.811	0.709	0.858	0.637	0.656
NCI-H520	0.234	0.2	0.214	0.195	0.173	0.218	0.197	0.239	0.221	0.236	0.213	0.247	0.267	0.3	0.218	0.271	0.294	0.316	0.215	0.221
HCC-78	0.504	0.516	0.501	0.403	0.52	–	–	–	–	–	0.394	0.406	0.508	0.406	0.377	0.197	0.24	0.24	0.206	0.224
NCI-H596	–	–	–	–	–	0.974	1.24	0.993	1.14	0.551	0.738	1.03	0.639	0.744	0.659	0.383	0.432	0.384	0.374	0.429
NCI-H1648	0.274	0.276	–	0.365	0.315	–	–	–	–	–	0.266	–	0.308	0.277	0.252	–	–	–	–	–
SW 900	0.517	0.481	0.527	0.569	0.622	0.175	0.167	0.188	0.18	0.202	0.677	0.652	0.663	0.664	0.537	–	–	–	–	–
IA-LM	–	–	–	–	–	–	–	–	–	–	–	–	–	–	–	0.361	0.463	0.342	0.389	0.579
NCI-H522	0.956	1.04	0.906	0.886	0.923	1.16	1.13	1.12	1.22	0.819	0.68	0.693	0.694	0.651	0.643	–	–	–	–	–
A549	–	–	–	–	–	–	–	–	–	–	–	–	–	–	–	0.525	0.509	0.448	0.438	0.384
HCC-366	0.406	0.364	0.404	0.412	0.341	–	–	–	–	–	0.999	1.1	0.971	0.878	0.414	0.177	0.179	0.166	0.111	0.127
Calu-6	–	–	–	–	–	–	–	–	–	–	–	–	–	–	–	0.899	0.872	0.932	0.877	0.852
NCI-H1703	–	–	–	–	–	–	–	–	–	–	–	–	–	–	–	0.377	–	0.26	0.215	0.223
